From US20190117547A1, “COSMETIC COMPOSITIONS COMPRISING SCLAREOLIDE” (SYMRISE AG, priority 2016, published 2019)

Columns and labels:
Format in all cases: cell-based
[1] = system: Human epidermal melanoma cells A375; assay: Basal melanin formation in vitro; details: for melanin: basal (no irradiation)
Protocol: Human epidermal melanoma cells A375 were cultured in 6-well plates. […] 48 h prior to and past to the irradiation the cells were treated with test compounds in non-cytotoxic concentrations. Melanocytes were lysed in a solution of NaOH. Melanin was quantified by measurement of absorbance at 405 nm and calculation based on a melanin standard curve.

[2] = system: Human epidermal melanoma cells A375; assay: Visible light induced hyperpigmentation in vitro; details: for Inhibition vs visible light induced / melanin: visible light 480 J/cm2
Protocol: Human epidermal melanoma cells A375 were cultured in 6-well plates. The cells were exposed to visible light (480 J/cm2) with Hydrosun 750 equipped with KG1 filter. 48 h prior to and past to the irradiation the cells were treated with test compounds in non-cytotoxic concentrations. Melanocytes were lysed in a solution of NaOH. Melanin was quantified by measurement of absorbance at 405 nm and calculation based on a melanin standard curve.

[3] = system: ex vivo human skin explants; assay: Melanin formation after visible light irradiation on ex vivo human skin; details: for Inhibition vs Placebo: skin explants, visible light 480 J/cm2; for % of melanin: topical on skin explants, visible light 480 J/cm2, Fontana-Masson stain
Protocol: The below formulations were applied on ex vivo human skin explants from abdominal surgery of a donor with phototype IV (Fitzpatrick scale). 48 h after the formulations were removed with a cotton pad. Skin explants were exposed to visible light (480 J/cm2) with Hydrosun 750 equipped with KG1 filter. Formulations were reapplied afterwards. 48 h later skin sections were prepared and melanin was stained by Fontana-Masson stain. Quantification of melanin was done by image analysis.

EDN1(endothelin 1) = assay: UVB induced gene expression (RTq PCR), EDN1; details: HaCaT cells, 50 μM Sclareolide, 20 mJ/cm^2 UVB, 24 hours; normalized to HPRT1 (UVB alone 22.7)
Protocol: (§1) HaCaT cells are seeded into a 12-well plate with 2.0×10^5 cells/well. After incubation over night the test compound (50 μM Sclareolide) is added to the cells and the plate is incubated for two more hours. Then cells are washed with PBS and irradiated with 20 mJ/cm^2 UVB (UVITEC Cambridge, 312 nm). PBS is removed and medium (control and with test compound) added. Cells are incubated for 24 hours. RNA is extracted and purified using the RNeasy kit (Qiagen) according to the manufacturer's instructions. The RNA concentration is determined with a photometer (Eppendorf) and 2 μg are used for reverse transcription, that is performed with the TaqMan® MicroRNACells-to-CT™ Kit (Ambion) like described in the user manual. Quantitative real time PCR is performed using the Applied Biosystems StepOne™ with customized TaqMan® Array Fast Plates with following primers: HPRT1 (hypoxanthine phosphoribosyltransferase 1) as housekeeping gene, EDN1(endothelin 1), CXCL1 (C—X—C motif chemokine ligand 1), IL6 (interleukin 6) and IL8 (C—X—C motif chemokine ligand 8). Target gene transcript levels are normalized to the HPRT1 transcript level and the relative transcript changes are calculated using the RQ=2-ΔΔCt method.

[4] = system: CXCL1 (C—X—C motif chemokine ligand 1); assay: UVB induced gene expression (RTq PCR), CXCL1; details: HaCaT cells, 50 μM Sclareolide, 20 mJ/cm^2 UVB, 24 hours; normalized to HPRT1 (UVB alone 5.4)
Protocol: as §1

[5] = system: IL8 (C—X—C motif chemokine ligand 8); assay: UVB induced gene expression (RTq PCR), IL8; details: HaCaT cells, 50 μM Sclareolide, 20 mJ/cm^2 UVB, 24 hours; normalized to HPRT1 (UVB alone 17.9)
Protocol: as §1

IL6 (interleukin 6) = assay: UVB induced gene expression (RTq PCR), IL6; details: HaCaT cells, 50 μM Sclareolide, 20 mJ/cm^2 UVB, 24 hours; normalized to HPRT1 (UVB alone 8.4)
Protocol: as §1

[6] = system: genes well-known for the induction of hyperpigmentation; assay: UVB induced gene expression (RTq PCR), overall statement; details: HaCaT cells, 50 μM Sclareolide, summary in words
Protocol: as §1

[7] = 0.05% sclareolide formulation (C)
[8] = 0.2% sclareolide formulation (B)

CC1(C)CCC[C@]2(C)C3CC(=O)O[C@]3(C)CC[C@@H]12 (stereo partly drawn) [sclareolide, (3aR,5aS,9aS,9bR)-deca hydro-3a,6,6,9a-tetramethylnaphtha[2,1-b]furan-2(1H)-one]
melanin ([1]; 3.16 μM sclareolide): 0.7775 ± 0.0412 µg | melanin ([1]; 10 μM sclareolide): 0.6554 ± 0.0408 µg | melanin ([1]; 31.6 μM sclareolide): 0.8851 ± 0.0579 µg | effect on basal melanin formation ([1]; summary in words): no effect | Inhibition vs visible light induced ([2]; 3.16 μM sclareolide): 18% | melanin ([2]; 3.16 μM sclareolide): 0.8784 ± 0.0293 µg | Inhibition vs visible light induced ([2]; 10 μM sclareolide): 67% | melanin ([2]; 10 μM sclareolide): 0.6306 ± 0.0675 µg | Inhibition vs visible light induced ([2]; 31.6 μM sclareolide): 70% | melanin ([2]; 31.6 μM sclareolide): 0.6106 ± 0.0658 µg | inhibition of visible light induced hyperpigmentation ([2]; summary in words): significantly inhibits | Inhibition vs Placebo [3, 7]: 1.2% | % of melanin [3, 7]: 61.33 ± 2.2% | Inhibition vs Placebo [3, 8]: 32.4% | % of melanin [3, 8]: 52.46 ± 2.9% | RQ EDN1 (EDN1(endothelin 1)): 11.9 | RQ CXCL1 [4]: 2.8 | RQ IL8 [5]: 10.3 | RQ IL6 (IL6 (interleukin 6)): 5.7 | inhibition of UVB induced upregulation of genes [6]: inhibits
